Common to all, as to type: biochemical, Trypanosoma congolense
Assay [1] relates to T1, T. congolense TS1 e-1.
T1 construct: residues 17-732 without signal peptide and GPI anchor region; C-terminal 3C site, SNAP and Strep tags; secreted from CHO Lec1 cells; 120 kDa with tags
Put plainly: HPAEC-PAD quantification of […]'Sia-Gal-MU, Michaelis-Menten fit. Conditions: acceptor substrate; donor 50 nmol 3'SL in 50 μL (Figure 7 legend; text b29 says fetuin, 600 μM bound Sia); 37°C, 30 min; read-out: Acceptor substrates / Gal-MU / KM.

Assay [2] concerns T2, T. congolense TS1b.
T2 construct: residues 17-732 without signal peptide and GPI anchor region; C-terminal 3C site, SNAP and Strep tags; secreted from CHO Lec1 cells; 120 kDa with tags
The description is as above. Conditions: acceptor substrate; donor 50 nmol 3'SL in 50 μL (Figure 7 legend; text b29 says fetuin, 600 μM bound Sia); 37°C, 30 min; read-out: Acceptor substrates / Gal-MU / KM.

For assay [3], the system named is T2, T. congolense TS1b. The assay is described as follows: HPAEC-PAD quantification of […]'-sialyllactose, Michaelis-Menten fit. Conditions: acceptor substrate; donor fetuin (600 μM bound Sia); pH 7.4-7.5, 37°C, 30 min; read-out: Acceptor substrates / Lactose / KM.
Assay [4] concerns T1, T. congolense TS1 e-1. Described as above. Conditions: acceptor substrate; donor fetuin (600 μM bound Sia); pH 7.4-7.5, 37°C, 30 min; read-out: Acceptor substrates / Lactose / KM.

With `Cc1cc(=O)oc2cc(O[C@@H]3O[C@H](CO)[C@H](O)[C@H](O)[C@H]3O)ccc12` [Gal-MU, 4-methylumbelliferyl ß-D-galactoside], the Km in assay [1] turned out to be 74 ± 17 µM; in assay [2], 57 ± 14 µM.

For `OC[C@H]1O[C@@H](O[C@H]2[C@H](O)[C@@H](O)C(O)O[C@@H]2CO)[C@H](O)[C@@H](O)[C@H]1O` (stereo partly shown) [lactose], the Km in assay [3] turned out to be 1.68 ± 0.101 mM; in assay [4] it was 727 ± 48 µM.

For the origin of these results see paper PMC3173295, “Biochemical characterization of trans-sialidase TS1 variants from Trypanosoma congolense” (BMC Biochemistry, 2011).
